Measured values reported in ChEMBL document CHEMBL1144839, “Cytotoxic bastadin 24 from the Australian sponge Ianthella quadrangulata” (J Nat Prod, 2008).

Test system: HUVEC
Experiment: Antiangiogenic activity in HUVEC cells assessed as inhibition of hEGF-induced tubular formation at 1 ug/mL after 24 hrs relative to control
Assay type: functional, Homo sapiens
Parameters: scale not given: the % may be the effect or the level left

O=C1NCCc2cc(Br)c(O)c(c2)Oc2c(Br)cc(cc2Br)[C@H](O)CNC(=O)/C(=N/O)Cc2cc(Br)c(O)c(c2)Oc2ccc(cc2Br)C/C1=N\O [BASTADIN 12]
Activity: 27.6%
